Assay results published in PMC7956344, “Structure Elucidation and Cholinesterase Inhibition Activity of Two New Minor Amaryllidaceae Alkaloids” (Molecules, 2021).
Read-outs that look alike come from different tables or passages of the source.

Legend:
[1] = molecular target: T1, human butyrylcholinesterase (hBuChE) (Homo sapiens, UniProt P06276); assay: hBuChE inhibition assay (modified Ellman method, BuTChI substrate); assay type: biochemical; conditions: for IC50: mean ± SEM of three independent measurements, each in triplicate; for % Inhibition hBuChE ± SEM / inhibition at 100 µM: tested at 100 µM compound concentration; for % Inhibition hBuChE ± SEM: 100 µM; for inhibition at 100 µM: read-out: % Inhibition hBuChE ± SEM
[2] = test system: POP; conditions: previously isolated narcikachnine-type alkaloids; cited from earlier work
[3] = indicated centrally active crossing of the BBB via passive diffusion; cited from earlier work
[4] = molecular target: T1, human butyrylcholinesterase (hBuChE); conditions: previously isolated narcikachnine-type alkaloids; cited from earlier work

T1 sequence (P06276 29-602): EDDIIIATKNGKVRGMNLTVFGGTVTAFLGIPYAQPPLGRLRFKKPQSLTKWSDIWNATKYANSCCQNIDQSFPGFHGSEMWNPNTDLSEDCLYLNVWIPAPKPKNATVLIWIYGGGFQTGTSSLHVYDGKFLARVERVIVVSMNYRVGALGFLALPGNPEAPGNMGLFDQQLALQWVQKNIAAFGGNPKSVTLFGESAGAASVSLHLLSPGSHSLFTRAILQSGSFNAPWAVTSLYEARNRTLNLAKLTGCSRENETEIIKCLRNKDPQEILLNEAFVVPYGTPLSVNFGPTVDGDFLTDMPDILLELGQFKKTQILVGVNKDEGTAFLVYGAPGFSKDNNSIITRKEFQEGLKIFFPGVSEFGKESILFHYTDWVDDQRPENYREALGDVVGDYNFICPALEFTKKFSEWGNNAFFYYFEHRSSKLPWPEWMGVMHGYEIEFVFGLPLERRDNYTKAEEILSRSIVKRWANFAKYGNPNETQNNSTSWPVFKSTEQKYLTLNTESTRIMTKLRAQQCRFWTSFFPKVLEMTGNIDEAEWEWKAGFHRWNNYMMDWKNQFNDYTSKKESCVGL

With `COc1cc2c(cc1O)[C@@H](O)O[C@@H]1CC=C3CCN(C)[C@H]3[C@H]21` [9-O-demethyllycorenine (1), 9-O-demethyllycorenine] the IC50 [1] was greater than 100 µM, the “% Inhibition hBuChE ± SEM” value [1] was “almost devoid of cholinesterase inhibitory activity” and the inhibition at 100 µM [1] was 30.2 ± 0.8%.

`COc1ccc2c3c1O[C@H]1C[C@@H](O)C=C[C@@]31CCN(C)C2` [galantamine] gave an inhibition at 100 µM [1] of 68.2 ± 1.2%.

With `COc1cc(-c2cccc3c2N(C)CC3)c(CN2CC[C@@]34C=C[C@H](O)C[C@@H]3Oc3c(OC)ccc(c34)C2)cc1O` [narciabduliine (2), narciabduliine] the IC50 [1] was 3.44 ± 0.02 µM, the “% Inhibition hBuChE ± SEM” value [1] was 94.1 ± 0.2% and the inhibition at 100 µM [1] was greater than 90%.

In the case of `COc1cc(-c2cccc3c2N(C)CC3)c(CN2CC[C@@]34C=C[C@H](O)C[C@@H]3Oc3c(OC)ccc(c34)C2)c(OC)c1OC` [narcieliine], the IC50 [2] is given as 163 ± 13 µM, the “in vitro permeability (Pe)” value [3] is given as 14.1 ± 1.0 × 10^−6 cm·s^−1 and the IC50 [4] is given as 1.3 ± 0.3 µM.

In the case of `COc1ccc2c3c1OC1CC(=O)CCC31CCN(Cc1cc3c(cc1-c1cccc4c1N(C)CC4)OCO3)C2` (stereo not shown) [narcimatuline], the IC50 [2] is given as 29.2 ± 1 µM and the IC50 [4] is given as 5.9 ± 0.2 µM.

In the case of `COc1ccc2c3c1OC1CC(O)CCC31CCN(Cc1cc3c(cc1-c1cccc4ccn(C)c14)OCO3)C2` (stereo not shown) [narcipavline], the IC50 [4] is listed as 24.4 ± 1.2 µM.
